Results as given in patent US20090054403A1, “Treatment of Post-Traumatic Stress Disorder” (priority 2007, published 2009).

Tests used:
plasma NE, DA and EPI = assay: Plasma catecholamines in beagle dogs, 2 mg/kg b.i.d. for 14.5 days; type: in vivo
Protocol: A separate study was conducted in dogs to determine the effects of chronic administration of 2a on the plasma DA/NE ratio. Animals were randomized to receive, orally, either placebo (empty capsule) or 2a (2 mg/kg, b.i.d) for 14.5 days. Daily blood samples were drawn, 6 h after the first dose, for the measurement of plasma concentrations of DA and NE. The samples were collected in tubes containing heparin and glutathione, centrifuged at […] and stored at −70° C. until analysis.
Male Beagle dogs (Marshall farms, North Rose, N.Y.) weighing between 9-16 kg were used in the study. The animals were allowed water ad libitum and given food once daily at ˜10.00 AM. Animals were randomly assigned to one of the following treatment groups (n=8/group): placebo (empty capsule), or nepicastat at 2 mg/kg b.i.d (4 mg/kg/day). Each animal received 2 doses daily, morning and afternoon (8-10 hours apart). Daily blood samples (10 ml) were drawn 6 h after the AM dose for measurement of plasma levels of nepicastat and catecholamines. The blood was collected in tubes containing heparin and glutathione and centrifuged at −4° C. within 1 h of collection. The plasma was separated and divided into two samples, one for the measurement of plasma catecholamines and the other for analysis of nepicastat.
Plasma NE, DA and EPI were anaylysed by HPLC using electrochemical detection. Plasma concentration of nepicastat was determined by HPLC using electrochemical detection.
The BQL (below quantitation limit) in the DA concentration of dog 1 at day 10 was set to 0; ln (0) was set to missing. The analysis was performed using a mixed model (using PROC MIXED) with the day and treatment categorical variables being fixed and the dog within treatment being a random factor. For the fixed effects, the interaction between the day and the treatment was included, since the difference between the drug and placebo groups varies from day to day. Contrasts were calculated using the CONTRAST statement, which correctly takes into account the error terms for each particular contrast. In particular, the contrasts comparing the […] uses the dog mean square for its error term, while the comparisons used to establish steady state are all within dog comparisons, and require the error mean square.
The time period of steady state was calculated using the Helmert transformation (cf. SAS PROC GLM manual). These transformations compare each treatment mean with the average of the treatment means of the time points following. The steady state period is defined to start at the first time point following the maximum time at which the Helmert contrast is statistically significant. However, since this method can fail to detect a smoothly changing process, as appears might be the case here, the slope of the analyte concentration during the steady state period also was calculated. The slope during the steady state period was calculated for each dog individually, yielding one slope per animal. Univariate statistics on the slopes were then calculated, with Normal theory confidence intervals built on the mean slope, and the hypothesis of slope equalling zero was tested, and its Normal theory p-value was calculated. This slope analysis was used as the basis for determining whether the steady state period was a period of changing concentration.

[1] = system: mean arterial pressure and heart rate; assay: Hemodynamic study in conscious, restrained SHR; type: in vivo, spontaneously hypertensive rats (SHR)
Protocol: FIG. 13: Effects of orally administered 2a on mean arterial pressure in conscious, restrained spontaneously hypertensive rats (SHR). SHR were lightly anesthetized with ether and instrumented for measurement of arterial pressure and drug administration. The animals were placed in restrainers and allowed to recover for 30-40 minutes. […] All data are expressed as mean±standard error of mean. n=6-8 per group. […] IR spectra were recorded on a Nicolet SPC FT-IR spectrometer. UV spectra were recorded on a Varian Cary 3 UV-Visible spectrometer, Leeman Labs Inc. Optical rotations were measured in a Perkin-Elmer Model 141 polarimeter. […] Hemodynamic study in SHR. Male SHR (15-16 week old) were used in the study. The animals were lightly anesthetized with ether and the left femoral artery and vein were catheterized for measurement of blood pressure and drug administration, respectively. The animals were placed in restrainers and allowed to recover for 30-40 min. […] The animals were then anesthetized with pentobarbital, placed on a heating pad (37° C.) and ventilated with a Harvard rodent ventilator. After administration of atropine (1 mg/kg, iv) and tubocurarine (1 mg/kg, iv), the animals were pithed through the orbit of the eye with a stainless steel rod. The […] rod was stimulated electrically with 1 ms pulses of 80V at different frequencies (0.15, 0.45, 1.5, 5, 15 Hz) to obtain frequency-pressor response curves.

[2] = system: sympathetically mediated pressor response; assay: Pressor response to pre-ganglionic nerve stimulation in pithed SHR; type: in vivo, spontaneously hypertensive rats (SHR)
Protocol: Hemodynamic study in SHR. Male SHR (15-16 week old) were used in the study. The animals were lightly anesthetized with ether and the left femoral artery and vein were catheterized for measurement of blood pressure and drug administration, respectively. The animals were placed in restrainers and allowed to recover for 30-40 min. […] The animals were then anesthetized with pentobarbital, placed on a heating pad (37° C.) and ventilated with a Harvard rodent ventilator. After administration of atropine (1 mg/kg, iv) and tubocurarine (1 mg/kg, iv), the animals were pithed through the orbit of the eye with a stainless steel rod. The […] rod was stimulated electrically with 1 ms pulses of 80V at different frequencies (0.15, 0.45, 1.5, 5, 15 Hz) to obtain frequency-pressor response curves.

[3] = system: dopamine and norepinephrine in the left ventricle; assay: Left ventricle catecholamines after two iv doses; type: in vivo, Sprague-Dawley rats; settings: 15 mg/kg iv x2, 12 h apart, 6 h after last

In the case of `Cl.NCc1c[nH]c(=S)n1[C@H]1CCc2c(F)cc(F)cc2C1` [nepicastat, (S)-5-Aminomethyl-1-(5,7-difluoro-1,2,3,4-tetrahydronaphth-2-yl)-2,3-dihydro-2-thioxo-1H-imidazole hydrochloride], the “day of peak decrease in plasma EPI” value (plasma NE, DA and EPI; 2 mg/kg b.i.d.) is reported as 8 days, the “day of peak decrease in plasma NE” value (plasma NE, DA and EPI; 2 mg/kg b.i.d.) is reported as 6 days and the “day of peak increase in plasma DA” value (plasma NE, DA and EPI; 2 mg/kg b.i.d.) is reported as 7 days. For the same molecule, the “day of peak increase in plasma DA/NE ratio” value (plasma NE, DA and EPI; 2 mg/kg b.i.d.) was 6 days, the “decrease in plasma EPI vs placebo” value (plasma NE, DA and EPI; 2 mg/kg b.i.d.) was 1.91 fold and the “decrease in plasma NE vs placebo” value (plasma NE, DA and EPI; 2 mg/kg b.i.d.) was 2.1 fold. For the same molecule, the “increase in plasma DA vs placebo” value (plasma NE, DA and EPI; 2 mg/kg b.i.d.) was 7.5 fold, the “increase in plasma DA/NE ratio vs placebo” value (plasma NE, DA and EPI; 2 mg/kg b.i.d.) was 13.6 fold and the “time to steady-state of effect on plasma DA” value (plasma NE, DA and EPI; 2 mg/kg b.i.d.) was about 8 days post-dose. The “time to steady-state of effect on plasma EPI” value (plasma NE, DA and EPI; 2 mg/kg b.i.d.) was about 6 days post-dose, the “time to steady-state of effect on plasma NE” value (plasma NE, DA and EPI; 2 mg/kg b.i.d.) was “approximately 4 days post-dose” and the “peak reduction in plasma concentration of noradrenaline” value (plasma NE, DA and EPI; 2 mg/kg b.i.d. po, day-6 of dosing) was 52%. For the same molecule, the “peak increase in plasma concentration of dopamine” value (plasma NE, DA and EPI; 2 mg/kg b.i.d. po, day-7 of dosing) was 646%, the “time to peak effect on plasma DA/NE ratio” value (plasma NE, DA and EPI; 2 mg/kg b.i.d., 14.5 day treatment) was 6 to 7 days and the “decrease in heart rate” value ([1]; 10 mg/kg oral) was 9.8%. The “maximal decrease in mean blood pressure” value ([1]; 10 mg/kg oral) was 53±4 mmHg, the “reduction in mean blood pressure relative to vehicle control” value ([1]; 10 mg/kg oral) was 33% and the decrease in pressure ([1]; 10 mg/kg, 4 hours after dosing) was −46 mmHg. For the same molecule, the “decrease in heart rate” value ([1]; 30 mg/kg oral) was 10.5%, the “duration of antihypertensive effects” value ([1]; acute oral administration) was over 4 h and the “time to plateau of antihypertensive response” value ([1]; oral dosing) was 3 to 4 h. For the same molecule, the “responses to preganglionic nerve stimulation” value ([2]; 3 mg/kg p.o., 5 hours after dosing) was “significantly attenuated the hypertensive and tachycardic responses”, the “maximum shift of the frequency-pressor response curve” value ([2]; 5 h after oral dosing) was 5 fold and the “decrease in norepinephrine levels, left ventricle” value [3] was 51%. For the same molecule, the “increase in dopamine levels, left ventricle” value [3] was 472% and the “increase in dopamine/norepinephrine ratio, left ventricle” value [3] was 1117%.
